Here are results for 1 molecule from US20210361628A1, “2-OXOTHIAZOLE COMPOSITIONS FOR TREATMENT OF FIBROTIC DISEASE” (Avexxin AS, priority 2018, published 2021).

The test system of test [1] is PGE2 in rat renal mesangial cells. Kind of test: IL-1 induced PGE2 in rat renal mesangial cells (EIA). It counts as cell-based. As to conditions: Mesangial cell, IL-1 stimulation. The method, then: Cell culture of rat renal mesangial cells were isolated, characterized and cultured as previously described (Pfeilschifter eteil., e1984).84ERLINK “htmesangial cells in 24-well plates were pretreated for 90library.wiley.com/doi/full/10.1111/Compound A before stimulation in a volume of 0.5 mL with IL-1eforenM, Cell Concept GmbH) to induce PGE2Hn in a volume of 0.5 mL with ILcom/doi/full^0C, 5% CO2), the cell suspensions were centrifuged to isolate the supernatant from the cell fraction. Samples were stored at −80° C. until analysis.
Rat mesangial cell supernatants were analyzed by EIA for PGE2 (Assay Designs, BIOTREND Chemikalien GmbH), according to the manufacturers protocols. Data were calculated as pg of PGE2 per 1.3×10^5 cells which was the cell number per well.

Test [2] concerns α-SMA mRNA in NRK-49F cells. Kind of test: TGF-β1 induced α-SMA mRNA expression in NRK-49F cells (qRT-PCR). As to conditions: 5 μM, 10 ng/ml TGF-β1 for 24 h. It counts as cell-based, rat. The protocol: NRK-49F (normal rat kidney fibroblasts, ATCC® CRL-1570™) were maintained in DMEM with 4500 mg/L glucose, 5% FBS, L-glutamine, and gentamicin. For experiments, 3×10^5 cells/well were seeded in 6-well plates. After three days, post-confluent cells were serum starved for 24 h. They were then pre-incubated with inhibitors for 90 min, before they were treated with 10 ng/ml TGF-β1 for 24 h (mRNA-expression).
(§1) Total RNA was isolated using the RNeasy Mini Kit (Qiagen). cDNA synthesis was performed with 1 μg total RNA in 20 μl reaction of QuantiTect Reverse Transcription Kit (Qiagen). After synthesis, cDNA was diluted 1:6 with RNase-free water. qRT-PCR was performed with LightCycler 480 SYBR Green I Master (Roche), and the qRT-PCR analyses were carried out using the Lightcycler 96 system (Roche).
For orientation: In qPCR the cycle at which signal appears reflects the starting amount.

In test [3] the test system is Ptgs2 mRNA in RMC (rat mesangial cells). The experiment in a line: TGF-β1 induced Ptgs2 mRNA expression in RMC (qRT-PCR). It counts as cell-based. The conditions noted are these: 5 μM, 5 ng/ml TGF-β1 for 24 h. The protocol: (§2) RMC (rat mesangial cells, ATCC® CRL-2573™) were maintained in DMEM with 4500 mg/L glucose (Sigma), 15% FBS, L-glutamine, and 0.4 mg/ml G418. For experiments, 3×10^5 cells/well were seeded in 6-well plates. After five days, post-confluent cells were serum starved for 24 h. They were then pre-incubated with inhibitors for 90 min, before they were treated with 5 ng/ml TGF-β1 for 24 h.
as §1

Test [4] concerns PGE2 production in human PBMC. Kind of test: LPS-induced PGE2 production in human PBMC (EIA). The conditions noted are these: LPS 10 ng/mL, 72 hrs. The format is cell-based. The protocol:
Blood was recruited from healthy donors at St. Olavs Hospital HF, the Bloodbank (project approved by Regional Ethical Committee of Mid-Norway; #2016/553). Peripheral blood mononuclear cells (PBMC) were isolated using SepMate™ separation tubes with LymphoPrep density gradient medium according to the STEMCELL Technology recommendations. For experiments, 1×10^6 cells/well/1 mL RPMI medium supplemented with 5% FBS, 0.3 mg/ml glutamine and 0.1 mg/ml gentamicin with- or without inhibitor. Treatments were added 2 hours prior to the addition of lipopolysaccharides as a potent inducer of inflammation (LPS from E. coli 026:B6 γ-irradiated, Sigma-Aldrich, #L2654). Following treatment (72 hrs., 37° C., 5% CO2), the cell suspensions were centrifuged to isolate the supernatant from the cell fraction. Samples were stored at −80° C. until analysis.
PBMC supernatants were analyzed by enzyme-linked immunosorbent assay (EIA) for PGE2 (Cayman #514010), according to the manufacturers protocols. PBMC supernatants were assayed at dilutions of 1:100, except supernatants from non-LPS treated PBMC that were assayed undiluted in all assays. Supernatants were hybridized over-night incubation, enzymatic conversion of substrate were read at OD420 nm. Data were processed using a 4-parameter logistic fit model.

In test [5] the test system is Ptgs2 mRNA in MRC-5 cells. The experiment in a line: TGF-β1 induced Ptgs2 mRNA expression in MRC-5 cells (qRT-PCR). It counts as cell-based, human. The conditions noted are these: 5 μM, 2 ng/ml TGF-β1 for 24 h. The protocol:
MRC-5 (human lung fibroblast, ATCC® CCL-171™) were maintained in MEM with 10% FBS, L-glutamine, and gentamicin. For experiments, 1×10^5 cells/well were seeded in 6-well plates. After two days, pre-confluent cells were serum starved for 24 h. They were then pre-incubated with inhibitors for 90 min, before they were treated with 2 ng/ml TGF-β1 for 24 h.
as §1

Test [6] relates to α-SMA mRNA in RMC (rat mesangial cells). Kind of test: TGF-β1 induced α-SMA mRNA expression in RMC mesangial cell line (qRT-PCR). It counts as cell-based. As to conditions: 5 ng/ml TGF-β1 for 24 h, not significant. The method, then: as §2, §1
[7] abbreviates: read-out: estimated IC50 of PGE2 inhibition.

pIC50: −log10 of the molar value.

With `CCCCCCCOc1ccc(OCC(=O)c2nc(C(=O)OC)cs2)cc1` [Compound A], 10 µM produced 65% inhibition in test [1] (10 μM). In addition, the values for the pIC50 in test [1] (setting [7]) and in test [4] (setting [7]) were 6.05 and 6.36, respectively. In test [2], the “inhibition of TGF-β1 induced expression of α-SMA mRNA” value is listed as 50%. Also, in test [3], the “Ptgs2 mRNA levels” value was “seem to reduce Ptgs2 mRNA levels”. Further, the PGE2 production in test [4] (10 μM (highest dose), LPS alone 18185+/−11200 pg/mL) came to 510 ± 406 pg/mL. For the same molecule, the Ptgs2 expression result in test [5] was “reduced Ptgs2 expression”. Besides, the “reduction of α-SMA mRNA expression” value in test [6] was “around 35%”.
